Experimental data: patent US12338237B2, “Derivatives having 1,2,3,4-tetrahydronaphthalene moiety or pharmaceutically acceptable salt thereof and pharmaceutical compositions comprising the same” (YUHAN CORPORATION, priority 2019, dated 2025)

Key:
GM1 production = test: cells; type: cell-based; details: Homo sapiens, Jurkat, 72 h
[1] = target: glucosylceramide synthase (GCS) (Homo sapiens (Human), UniProt Q16739); test: Evaluation of inhibitory activities against GCS (enzyme reaction with A549 cell lysate, NBD C6-ceramide, HPLC fluorescence); type: biochemical; details: GCS activity in A549 cell lysate, 37° C. for 90 minutes
glucosylceramide synthase (GCS), sequence (Q16739 whole entry, looked up): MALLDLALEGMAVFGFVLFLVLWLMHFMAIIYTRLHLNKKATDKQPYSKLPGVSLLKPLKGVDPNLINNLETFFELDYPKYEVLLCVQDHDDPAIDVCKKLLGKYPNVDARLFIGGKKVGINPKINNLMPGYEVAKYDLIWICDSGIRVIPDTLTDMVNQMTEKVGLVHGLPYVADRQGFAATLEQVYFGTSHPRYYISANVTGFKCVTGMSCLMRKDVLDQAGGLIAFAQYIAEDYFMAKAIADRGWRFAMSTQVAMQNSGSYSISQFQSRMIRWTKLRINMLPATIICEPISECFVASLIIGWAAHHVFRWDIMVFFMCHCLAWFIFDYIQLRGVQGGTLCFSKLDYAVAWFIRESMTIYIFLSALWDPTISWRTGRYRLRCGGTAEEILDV
In short: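 Lysate of A549 cells in 50 mM HEPES pH 7.3 incubated with test compound and NBD C6-ceramide at 37 °C for 90 min; lipids extracted with chloroform/methanol and GlcCer and ceramide peaks quantified by HPLC fluorescence. Activity from GlcCer area fraction, normalised between DMSO and ibiglustat controls.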

| SMILES | IC50 (GM1 production) [nM] | IC50 [1] [nM] |
| --- | --- | --- |
| Cc1ccc(-c2ccc3c(c2)C(NC(=O)O[C@@H]2CN4CCC2CC4)C2(CC3)CC2)cc1 (stereo partly drawn) [Example 183, (S)-quinuclidin-3-yl (7′-(p-tolyl)-3′,4′-dihydro-1′H-spiro[cyclopropane-1,2′-naphthalen]-1′-yl)carbamate] | 145 | 12.9 |
| O=C(NC1c2cc(-c3ccc(OC(F)F)cc3)ccc2CCC12CC2)O[C@@H]1CN2CCC1CC2 (stereo partly drawn) [Example 184, (S)-quinuclidin-3-yl (7′-(4-(difluoromethoxy)phenyl)-3′,4′-dihydro-1′H-spiro[cyclopropane-1,2′-naphthalen]-1′-yl)carbamate] | 87 | 7.52 |
| COCOc1ccc(-c2ccc3c(c2)C(NC(=O)O[C@@H]2CN4CCC2CC4)C2(CC3)CC2)cc1 (stereo partly drawn) [Example 185, (S)-quinuclidin-3-yl (7′-(4-(methoxymethoxy)phenyl)-3′,4′-dihydro-1′H-spiro[cyclopropane-1,2′-naphthalen]-1′-yl)carbamate] | 73 | 14.8 |
| O=C(NC1c2ccc(-c3ccc(F)cc3)cc2CCC12CC2)O[C@@H]1CN2CCC1CC2 (stereo partly drawn) [Example 186, (S)-quinuclidin-3-yl (6′-(4-fluorophenyl)-3′,4′-dihydro-1′H-spiro[cyclopropane-1,2′-naphthalen]-1′-yl)carbamate] | 79.8 | 24.4 |
| O=C(NC1c2ccc(-c3ccc(Cl)cc3)cc2CCC12CC2)O[C@@H]1CN2CCC1CC2 (stereo partly drawn) [Example 187, (S)-quinuclidin-3-yl (6′-(4-chlorophenyl)-3′,4′-dihydro-1′H-spiro[cyclopropane-1,2′-naphthalen]-1′-yl)carbamate] | 35.5 | 13.9 |
| O=C(NC1c2ccc(-c3ccc(C(F)(F)F)cc3)cc2CCC12CC2)O[C@@H]1CN2CCC1CC2 (stereo partly drawn) [Example 188, (S)-quinuclidin-3-yl (6′-(4-(trifluoromethyl)phenyl)-3′,4′-dihydro-1′H-spiro[cyclopropane-1,2′-naphthalen]-1′-yl)carbamate] | 34.1 | 16.1 |
| O=C(NC1c2ccc(-c3ccc(OC(F)(F)F)cc3)cc2CCC12CC2)O[C@@H]1CN2CCC1CC2 (stereo partly drawn) [Example 189, (S)-quinuclidin-3-yl (6′-(4-(trifluoromethoxy)phenyl)-3′,4′-dihydro-1′H-spiro[cyclopropane-1,2′-naphthalen]-1′-yl)carbamate] | 25.1 | 18.9 |
| O=C(NC1c2ccc(-c3cccc(F)c3)cc2CCC12CC2)O[C@@H]1CN2CCC1CC2 (stereo partly drawn) [Example 190, (S)-quinuclidin-3-yl (6′-(3-fluorophenyl)-3′,4′-dihydro-1′H-spiro[cyclopropane-1,2′-naphthalen]-1′-yl)carbamate] | 19.9 | 11.9 |
| O=C(NC1c2ccc(-c3cccc(Cl)c3)cc2CCC12CC2)O[C@@H]1CN2CCC1CC2 (stereo partly drawn) [Example 191, (S)-quinuclidin-3-yl (6′-(3-chlorophenyl)-3′,4′-dihydro-1′H-spiro[cyclopropane-1,2′-naphthalen]-1′-yl)carbamate] | 14.4 | 9.9 |
| O=C(NC1c2ccc(-c3cccc(C(F)(F)F)c3)cc2CCC12CC2)O[C@@H]1CN2CCC1CC2 (stereo partly drawn) [Example 192, (S)-quinuclidin-3-yl (6′-(3-(trifluoromethyl)phenyl)-3′,4′-dihydro-1′H-spiro[cyclopropane-1,2′-naphthalen]-1′-yl)carbamate] | 14 | 12.9 |
| O=C(NC1c2ccc(-c3cccc(OC(F)(F)F)c3)cc2CCC12CC2)O[C@@H]1CN2CCC1CC2 (stereo partly drawn) [Example 193, (S)-quinuclidin-3-yl (6′-(3-(trifluoromethoxy)phenyl)-3′,4′-dihydro-1′H-spiro[cyclopropane-1,2′-naphthalen]-1′-yl)carbamate] | 21.6 | 20.9 |
| COCCOc1ccc(-c2ccc3c(c2)CCC2(CC2)C3NC(=O)O[C@@H]2CN3CCC2CC3)cc1 (stereo partly drawn) [Example 194, (S)-quinuclidin-3-yl (6′-(4-(2-methoxyethoxy)phenyl)-3′,4′-dihydro-1′H-spiro[cyclopropane-1,2′-naphthalen]-1′-yl)carbamate] | 7.92 | 1.03 |
| COCCOc1cccc(-c2ccc3c(c2)CCC2(CC2)C3NC(=O)O[C@@H]2CN3CCC2CC3)c1 (stereo partly drawn) [Example 195, (S)-quinuclidin-3-yl (6′-(3-(2-methoxyethoxy)phenyl)-3′,4′-dihydro-1′H-spiro[cyclopropane-1,2′-naphthalen]-1′-yl)carbamate] | 23.3 | 5.39 |
| COCCOc1ccccc1-c1ccc2c(c1)CCC1(CC1)C2NC(=O)O[C@@H]1CN2CCC1CC2 (stereo partly drawn) [Example 196, (S)-quinuclidin-3-yl (6′-(2-(2-methoxyethoxy)phenyl)-3′,4′-dihydro-1′H-spiro[cyclopropane-1,2′-naphthalen]-1′-yl)carbamate] | 25.2 | 6.02 |
| COCOc1ccc(-c2ccc3c(c2)CCC2(CC2)C3NC(=O)O[C@@H]2CN3CCC2CC3)cc1 (stereo partly drawn) [Example 197, (S)-quinuclidin-3-yl (6′-(4-(methoxymethoxy)phenyl)-3′,4′-dihydro-1′H-spiro[cyclopropane-1,2′-naphthalen]-1′-yl)carbamate] | 2.8 | 3.13 |
| COCOc1cccc(-c2ccc3c(c2)CCC2(CC2)C3NC(=O)O[C@@H]2CN3CCC2CC3)c1 (stereo partly drawn) [Example 198, (S)-quinuclidin-3-yl (6′-(3-(methoxymethoxy)phenyl)-3′,4′-dihydro-1′H-spiro[cyclopropane-1,2′-naphthalen]-1′-yl)carbamate] | 8.68 | 5.17 |
| COCOc1ccccc1-c1ccc2c(c1)CCC1(CC1)C2NC(=O)O[C@@H]1CN2CCC1CC2 (stereo partly drawn) [Example 199, (S)-quinuclidin-3-yl (6′-(2-(methoxymethoxy)phenyl)-3′,4′-dihydro-1′H-spiro[cyclopropane-1,2′-naphthalen]-1′-yl)carbamate] | 7.63 | 7.24 |
| COc1ccc(-c2ccc3c(c2)CCC2(CC2)C3NC(=O)O[C@@H]2CN3CCC2CC3)c(Cl)c1 (stereo partly drawn) [Example 200, (S)-quinuclidin-3-yl (6′-(2-chloro-4-methoxyphenyl)-3′,4′-dihydro-1′H-spiro[cyclopropane-1,2′-naphthalen]-1′-yl)carbamate] | 46 | 8.85 |
| COc1cc(-c2ccc3c(c2)CCC2(CC2)C3NC(=O)O[C@@H]2CN3CCC2CC3)ccc1Cl (stereo partly drawn) [Example 201, (S)-quinuclidin-3-yl (6′-(4-chloro-3-methoxyphenyl)-3′,4′-dihydro-1′H-spiro[cyclopropane-1,2′-naphthalen]-1′-yl)carbamate] | 111 | 33.5 |
| COc1ccc(-c2ccc3c(c2)CCC2(CC2)C3NC(=O)O[C@@H]2CN3CCC2CC3)cc1F (stereo partly drawn) [Example 202, (S)-quinuclidin-3-yl (6′-(3-fluoro-4-methoxyphenyl)-3′,4′-dihydro-1′H-spiro[cyclopropane-1,2′-naphthalen]-1′-yl)carbamate] | 24.4 | 1.16 |
| CCc1cccc(-c2ccc3c(c2)CCC2(CC2)C3NC(=O)O[C@@H]2CN3CCC2CC3)c1 (stereo partly drawn) [Example 203, (S)-quinuclidin-3-yl (6′-(3-ethylphenyl)-3′,4′-dihydro-1′H-spiro[cyclopropane-1,2′-naphthalen]-1′-yl)carbamate] | 35 | 13.5 |
